Assay results from ChEMBL document CHEMBL5137092, “Nostosin G and Spiroidesin B from the Cyanobacterium Dolichospermum sp. NIES-1697” (J Nat Prod, 2022).

biological target: Trypsin (Homo sapiens, UniProt P07477+P07478+P35030); assay: Inhibition of trypsin (unknown origin) using Nalpha-benzoyl-D/L-arginine-4-nitroanilide hydrochloride as substrate preincubated for 5 mins followed by substrate addition and measured upto 30 mins by absorbance based assay; assay type: protein assay

IC50 [nM]	Structure (SMILES)
100	N=C(N)NCCC[C@@H](C=O)NC(=O)[C@H](CCc1ccc(O)cc1)NC(=O)[C@H](O)Cc1ccc(O)cc1
> 200000	N=C(N)NCCC[C@@H](CO)NC(=O)[C@H](CCc1ccc(O)cc1)NC(=O)[C@H](O)Cc1ccc(O)cc1
600	CC(=O)N[C@@H](CC(C)C)C(=O)N[C@@H](CC(C)C)C(=O)N[C@H](C=O)CCCNC(=N)N [LEUPEPTIN]
